Test results: PMC7127101 (Bioorganic & Medicinal Chemistry Letters, 2010)

Target: SARS-CoV 3CL^pro (Severe acute respiratory syndrome coronavirus, UniProt P0C6X7)
Type: biochemical

Row | SMILES | Inhibition type | V max | fold smaller IC50 value compared with that of reference compounds
1 | CC1=CC[C@]2(C)CC[C@]3(C)C4=CC=C5C(=CC(=O)C(O)=C5C)[C@]4(C)CC[C@@]3(C)[C@@H]2C1 [Compound 4, iguesterin] | Competitive (0.8 ± 0.2) | 44.4 ± 6.2 intensity min^−1 | 10 fold
2 | CC1=C(O)C(=O)C=C2C1=CC=C1[C@@]2(C)CC[C@@]2(C)[C@@H]3C[C@](C)(C(=O)O)CC[C@]3(C)CC[C@]12C [Compound 1, celastrol] | Competitive (4.2 ± 0.6) | – | –
3 | CC1=C(O)C(=O)C=C2C1=CC=C1[C@@]2(C)CC[C@@]2(C)[C@@H]3C[C@@H](C)C(=O)C[C@]3(C)CC[C@]12C [Compound 3, tingenone] | Competitive (4.0 ± 0.1) | – | –
4 | COC(=O)[C@]1(C)CC[C@]2(C)CC[C@]3(C)C4=CC=C5C(=CC(=O)C(O)=C5C)[C@]4(C)CC[C@@]3(C)[C@@H]2C1 [Compound 2, pristimerin] | Competitive (3.1 ± 0.0) | – | –
